Measurements as given in US8367060B2, “Pharmaceutical composition containing arazyme for the prevention of liver dysfunction” (Insect Biotech Co., Ltd., priority 2006, dated 2013).
Entries after “also recorded” stand apart in the source; their conditions may differ.

What was measured:
P-smad3 [1] = experiment: Immunohistochemical observation of P-smad3 expression in liver cells; type: in vivo, mice; details: 100 mg/kg oral before CCl4
liver cells = experiment: Histopathological observation on liver cells (H&E) in CCl4-induced acute liver injury; type: in vivo, mice; details: for necrosis in liver cells: 100 mg/kg oral one day before CCl4 0.4 ml/kg i.p., autopsy 24 hours after CCl4
Text: In the present invention, male wild type C57BL/6(WT) at 12 weeks and SMP30 knock-out C57BL/6(KO) mice were used to induce liver injury by CCl4 and then the relation of SMP30 with arazyme was investigated. 10 male and 20 female SMP30 knock-out C57BL/6 mice were distributed from Tokyo Metropolitan Institute of Gerontology, which were then raised in the animal laboratory at Department of Pathology, College of Veterinary Medicine, Kyungpook National University, Korea. Among F1 mice generated by breeding, knock-out mice were selected by tail DNA genotyping by PCR.
Wild type mice were quarantined and adapted for 7 days in the animal laboratory. During the adaptation, every symptom was checked and only healthy animals were selected. Both wild type and SMP30 knock-out mice were 12 weeks old, excluding the difference in age.
Rats were adapted and raised in an animal facility where temperature was regulated to 22±3° C., humidity was adjusted to 55±10% and light was also regulated to 12L/12D (08:00 lights on, 20:00 lights out). The environmental conditions were checked regularly (every three months). After environmental evaluation, no changes in important conditions were recognized. During the whole experiment period, rats were raised in polycarbonate cages [240 W×390 L×175 H (mm)] by up to 5 per cage. Skin mark using an oil magic pen and individual identification card were used for distinguishment. Feed for laboratory animals (PMI Nutrition International, 505 North 4th Street Richmond, in 47374, USA) was provided at any time after being sterilized by irradiation (13.2 kGy). Tap water was provided using a water bottle at any time after being purified by a carbon filter. Carbon tetrachloride was diluted in olive oil at the concentration of 0.4 ml/kg and administered to […] once to induce liver injury. 24 hours after the administration, autopsy was performed.
Wild type mice and SMP30 knock-out mice were divided, by 5 of each, into negative control groups (G1, G5), positive control groups (G2, G6), two of experimental group 1 (G3, G7) and two of experimental group 2 (G4, G8) (Table 1). […]

SMP30 [2] = experiment: Immunohistochemical observation of SMP30 in liver cells; type: in vivo; details: wild type mice, 100 mg/kg oral before CCl4, compared with CCl4 alone
Description: (§1) Wild type mice and SMP30 knock-out mice were divided, by 5 of each, into negative control groups (G1, G5), positive control groups (G2, G6), two of experimental group 1 (G3, G7) and two of experimental group 2 (G4, G8) (Table 1). Intraperitoneal administration of olive oil was performed once to negative control mice (G1, G5), while intraperitoneal administration of CCl4 (0.4 ml/kg) was performed once to positive control mice (G2, G6). In the meantime, 100 mg/kg of vitamin C dissolved in tap water was orally administered to experimental group 1 mice (G3, G7) one day before the intraperitoneal administration of CCl4 (0.4 ml/kg). 100 mg/kg of arazyme dissolved in tap water was orally administered to experimental group 2 mice (G4, G8) one day before the intraperitoneal administration of CCl4 (0.4 ml/kg). 24 hours after the administration of CCl4, autopsy was performed in every mouse and samples were taken from each mouse for histopathological test.
To observe SMP30 in liver cells immunohistochemically, paraffin embedded tissues fixed with formalin were cut into 4 μm thick sections, followed by deparaffinization. To inhibit the activity of endogenous peroxidase, the sections were treated in 3% H2O2 for 30 minutes and washed with 0.01 M PBS. To increase antigen expression of the tissues, the sections were treated with 0.01 M citrate buffer, followed by heat treatment using microwave. […]

SMP30 [3] = experiment: Expression of SMP30 in liver cells by immunoblotting; type: in vivo; details: wild type mice; 100 mg/kg oral before CCl4; compared with CCl4 only (G2)
Description: as §1
(§2) The expression of SMP30 in liver cells was investigated by immunoblotting. First, the liver tissues frozen at −70° C. were homogenized in RIPA buffer containing 0.1 mM sodium orthovandate (Na3VO4) and protease inhibitor cocktail tablet (Roche, Mannheim, Germany). […] Protein concentration was measured by Bradford method and each protein sample proceeded onto 10% SDS-polyacrylamide gel at the concentration of 80 µg/well, followed by electrophoresis. […]

P-smad3 [4] = experiment: Expression of P-smad3 in liver cells by immunoblotting; type: in vivo; details: SMP30 knock-out mice; compared with CCl4 alone (G6)
Description: as §1, §2

## O=C1O[C@H]([C@@H](O)CO)C(O)=C1O [vitamin C, L-ascorbic acid, reference compound]
P-smad3 [1]; SMP30 knock-out mice, G6, G7 compared with G8
  P-smad3 immune response (immunohistochemistry): strongly detected
P-smad3 [1]; wild type mice, compared with CCl4 only (G2), 100 mg/kg
  P-smad3 immune response (immunohistochemistry): strong immune response against P-smad3 was detected in group 2 (G2) treated with CCl4 only, compared with the groups (G3, G4) treated with vitamin C and arazyme; also recorded: strongly observed in CCl4 treated group (G2), compared with the groups treated with vitamin C and arazyme (G3, G4)
Liver cells; SMP30 knock-out C57BL/6 mice
  necrosis in liver cells: significantly inhibited
Liver cells; wild type C57BL/6 mice
  necrosis in liver cells: significantly inhibited
Liver cells; wild type and SMP30 knock-out mice with acute liver injury
  apoptosis of liver cells, histological observation: inhibition of apoptosis of liver cells was observed
SMP30 [2]
  SMP30 expression (immunohistochemistry): higher; also recorded: more strongly expressed
SMP30 [3]
  SMP30 expression (immunoblotting): high
P-smad3 [4]
  P-smad3 expression (immunoblotting): inhibited
